Key:
[1] = women; cited from earlier work
[2] = test system: rat ovarian aromatase; test: Inhibition of rat ovarian aromatase in vivo (PMSG-treated adult female rats, oral)
[3] = target: T1, human placental aromatase (Homo sapiens, UniProt P11511); test: Inhibition of human placental aromatase in vitro; format: biochemical
T1 construct: isolated from the microsomal fraction of human placental tissue; from tissue; host or cells: human placenta, microsomal fraction
T1 sequence (P11511 1-503): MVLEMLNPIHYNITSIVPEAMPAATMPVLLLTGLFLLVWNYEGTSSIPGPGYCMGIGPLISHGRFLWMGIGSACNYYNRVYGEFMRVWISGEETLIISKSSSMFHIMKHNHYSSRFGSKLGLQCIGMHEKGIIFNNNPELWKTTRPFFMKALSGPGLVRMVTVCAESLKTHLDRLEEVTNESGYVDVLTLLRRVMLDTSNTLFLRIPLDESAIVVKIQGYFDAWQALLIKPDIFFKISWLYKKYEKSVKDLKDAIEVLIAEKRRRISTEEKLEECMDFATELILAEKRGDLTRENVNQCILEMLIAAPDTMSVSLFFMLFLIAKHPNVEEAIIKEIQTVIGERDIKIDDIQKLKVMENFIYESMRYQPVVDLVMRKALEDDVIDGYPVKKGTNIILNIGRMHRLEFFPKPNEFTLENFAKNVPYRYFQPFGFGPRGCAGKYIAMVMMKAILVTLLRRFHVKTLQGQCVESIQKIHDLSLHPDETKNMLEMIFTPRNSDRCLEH

[4] = 30 mg/kg p.o., rats, ovaries taken 24 hrs later

Row | Compound | conjugation after oral administration [1] | % Aromatase inhibition at 30 mg/kg p.o. (result in words) [2, 4] | effectiveness in vivo by oral route (in words) ([2]; administered in vivo by oral route) | % Aromatase inhibition at 30 mg/kg p.o. [2, 4] | Relative potency [3]
1 | C[C@]12CCC(=O)C(O)=C1CC[C@@H]1[C@@H]2CC[C@]2(C)C(=O)CC[C@@H]12 [4-hydroxy-androst-4-ene-3,17-dione] | extensively conjugated after oral administration | inactive | ineffective | – | –
2 | C=C1C[C@@H]2[C@H](CC[C@]3(C)C(=O)CC[C@@H]23)[C@@]2(C)CCC(=O)C=C12 [6-methylenandrost-4-ene-3,17-dione, reference compound] | – | inactive | – | – | –
3 | C[C@]12C=CC(=O)C=C1CC[C@@H]1[C@@H]2CC[C@]2(C)C(=O)CC[C@@H]12 [androsta-1,4-diene-3,17-dione] | – | – | – | 37% | –
4 | C[C@]12C=CC(=O)C=C1CC[C@@H]1[C@@H]2CC[C@]2(C)OC(=O)CC[C@@H]12 [Δ^1 -testololactone, reference compound] | – | inactive | – | – | 0.005
